Laboratory results as given in article PMC8400955 (Pharmaceuticals, 2021).
Read-outs that look alike come from different tables or passages of the source.

Experiment: Single-dose PK and bioavailability of ZB716 in rats
Format: in vivo
Conditions: Sprague Dawley, rat, plasma; for bioavailability: PO 6 mg/kg/day vs IV 2 mg/kg/day
[1] = female, single dose, IV 2 mg/kg/day, F
[2] = female, single dose, PO 6 mg/kg/day, F
[3] = female, single dose, PO 30 mg/kg/day, F
[4] = female, single dose, PO 100 mg/kg/day, F
[5] = female, single dose, PO 400 mg/kg/day, F
[6] = male, single dose, IV 2 mg/kg/day, M
[7] = male, single dose, PO 6 mg/kg/day, M
[8] = male, single dose, PO 30 mg/kg/day, M
[9] = male, single dose, PO 100 mg/kg/day, M
[10] = male, single dose, PO 400 mg/kg/day, M

## C[C@]12CC[C@@H]3c4ccc(B(O)O)cc4C[C@@H](CCCCCCCCC[S+]([O-])CCCC(F)(F)C(F)(F)F)[C@H]3[C@@H]1CC[C@@H]2O (stereo partly drawn) [ZB716, fulvestrant-3-boronic acid]
Both sexes, single oral administration, mostly, post-dose, read-out: Tmax
  Tmax: 30 to 120 min
female, F
  bioavailability: 5.98%
[1]
  AUC(0-t): 6440 ng·h/mL
  Cmax: 4530 ng/mL
female, single dose, IV 2 mg/kg/day, F, read-out: Tmax (median)
  Tmax: 5 min
[2]
  AUC(0-t): 1160 ng·h/mL
  Cmax: 347 ng/mL
female, single dose, PO 6 mg/kg/day, F, read-out: Tmax (median)
  Tmax: 30 min
[3]
  AUC(0-t): 15700 ng·h/mL
  Cmax: 3520 ng/mL
female, single dose, PO 30 mg/kg/day, F, read-out: Tmax (median)
  Tmax: 60 min
[4]
  AUC(0-t): 30500 ng·h/mL
  Cmax: 3590 ng/mL
female, single dose, PO 100 mg/kg/day, F, read-out: Tmax (median)
  Tmax: 30 min
[5]
  AUC(0-t): 55600 ng·h/mL
  Cmax: 4310 ng/mL
female, single dose, PO 400 mg/kg/day, F, read-out: Tmax (median)
  Tmax: 60 min
male, M
  bioavailability: 6.36%
[6]
  AUC(0-t): 4910 ng·h/mL
  Cmax: 5370 ng/mL
male, single dose, IV 2 mg/kg/day, M, read-out: Tmax (median)
  Tmax: 5 min
[7]
  AUC(0-t): 936 ng·h/mL
  Cmax: 321 ng/mL
male, single dose, PO 6 mg/kg/day, M, read-out: Tmax (median)
  Tmax: 30 min
[8]
  AUC(0-t): 5410 ng·h/mL
  Cmax: 1720 ng/mL
male, single dose, PO 30 mg/kg/day, M, read-out: Tmax (median)
  Tmax: 120 min
[9]
  AUC(0-t): 12500 ng·h/mL
  Cmax: 3010 ng/mL
male, single dose, PO 100 mg/kg/day, M, read-out: Tmax (median)
  Tmax: 30 min
[10]
  AUC(0-t): 32600 ng·h/mL
  Cmax: 2860 ng/mL
male, single dose, PO 400 mg/kg/day, M, read-out: Tmax (median)
  Tmax: 30 min
